Like-named read-outs stand apart in the source and are kept apart here. Blank lines part the entries; values can stand above or below the compound they belong to.
How the values were obtained:
[1] = Solubility of pharmaceuticals in dimethylether (Example 7); assay type: physicochemical
Experimental: (§1) A comparison of solubility's of a number of pharmaceuticals was performed in the following way:
(§2) Approximately 3-5 g of the pharmaceutical was slightly compressed in an uniaxial press to avoid the formation of a stable suspension. The so compressed powder was given in a pressure chamber with a sapphire glass (30 ml volume). The temperature of the pressure chamber was controlled by water bath. Then the pressure in the chamber was increased using the corresponding gas and equilibrated for 1-3 hours. After equilibration a defined sample (1.0 ml) was drawn under constant pressure and temperature conditions using a high pressure line with a defined volume. […] The sample container was afterwards rinsed with the same liquid to collect the residues of the substance in the sample container.
(§3) The solubility (G/V) was determined either by HPLC or gravimetrically after removing the liquid.

[2] = Solubility of pharmaceuticals in carbon dioxide (Example 7); assay type: physicochemical
Experimental: as §1, §2, §3

[3] = Volume weighted particle size distribution after spraying (Examples 8, 9); assay type: physicochemical; conditions: dissolved at 40° C., 200×10^5 Pa, sprayed into second autoclave
Experimental: 100 g of solid Orlistat in a container with two sinter plates was charged into an autoclave having a volume of 6 l. The autoclave was kept at a temperature of 40° C. with a water bath. Then the autoclave was filled with gas up to a pressure of 200×10^5 Pa and equilibrated for 90 min. The autoclave was connected to a second autoclave via a heated high pressure line, kept at 40° C. This second autoclave has a volume of 4 l. The dissolved Orlistat was sprayed into this second autoclave. Thereby the pressure of the first autoclave was kept constant at 200×10^5 Pa by pumping in additional gas. The resulting volume weighted particle size distribution is as follows: 100 g of solid Saquinavir in a container with two sinter plates was charged into an autoclave having a volume of 6 l. The autoclave was kept at a temperature of 40° C. with a water bath. Then the autoclave was filled with gas up to a pressure of 200×10^5 Pa and equilibrated for 90 min. The autoclave was connected to a second autoclave via a heated high pressure line, kept at 40° C. This second autoclave has a volume of 4 l. The dissolved Saquinavir was sprayed into this second autoclave. Thereby the pressure of the first autoclave was kept constant at 200×10^5 Pa by pumping in additional gas. The resulting volume weighted particle size distribution is as follows: […]

[4] = Experimental: 250 g of solid trans-apoester (Ethyl-8′-apo-β-carotene-8′oate) were charged into an autoclave. The autoclave was adjusted to a temperature of 67° C. […] 1003 g of the solution was sprayed into a spray-tower via a nozzle having a bore hole of 0.2 mm. The flow rate was 84 g/min. During the spray procedure the pressure in the autoclave was maintained at 150×10^5 Pa by supplementation with fresh dimethyl ether. The sample composition was determined gravimetrically.
[5] = Solubility / miscibility of β-carotene in dimethyl ether; assay type: physicochemical
Experimental: It has now been discovered that dimethyl ether is useful as a solvent for β-carotene in processes such as those described above where the material to be produced as a powder is dissolved in a solvent at high temperature and pressure, and then the pressure is reduced whereby the solubility of the dissolved material decreases to the point where it precipitates from the solution as a fine powder. […] From PCT Patent Publication WO 96/15133 it is already known that dimethyl ether is an excellent solvent at elevated temperature and pressure conditions. The solubility of β-carotene in liquid dimethyl ether is strongly temperature dependent. About 1.1 wt. % of β-carotene dissolve in liquid dimethyl ether (vapour pressure 4 bar) at 25° C. At 60° C. (vapour pressure 15 bar) already 2.7 wt. % dissolve. At higher pressures (up to 300 bar) the solubility is practically not increased in this temperature region.
Thus, a homogeneous solution of β-carotene and dimethyl ether exists at 105° C. and pressures above 140 bar.
250 g of solid trans-β-carotene were charged into an autoclave having a volume of 1 l. The autoclave was thermostatted electrically to a temperature of 105° C. 500 g of dimethyl ether (cosmetic grade) were pumped into the autoclave. Dissolution of the carotene took about 60 minutes, with shaking of the autoclave. The pressure was then 175×10^5 Pa. A sample was taken at both the top and bottom lids of the autoclave. The sample compositions were determined gravimetrically. Both samples gave a carotene content of 33 wt. % and a dimethyl ether content of 67 wt. %, i.e. a homogeneous phase of carotene and dimethyl ether was present in the autoclave.

[6] = 500 bar, cited from earlier work
[7] = Stability of β-carotene in liquid solutions with highly compressible gases; assay type: physicochemical; conditions: temperatures in the region of its melting point of 180° C.
Experimental: In analogy to the procedure described in WO 95/21688 it has been investigated whether β-carotene forms liquid solutions with the mentioned and other highly compressible substances. β-Carotene forms liquid solutions with the gases only at temperatures in the region of its melting point of 180° C.

[8] = carbon dioxide or dinitrogen monoxide, pressures up to 500 bar; cited from earlier work
[9] = cited from earlier work

solubility (CH3—O—CH3) ([1]; 20° C./4.5×10^5 Pa): 17.8 % (g/V)
solubility (CO2) ([2]; 30° C./100×10^5 Pa): 0.6 % (g/V)
particle size, 10% of the particles (volume weighted) [3]: ≦0.40 μm
particle size, 50% of the particles (volume weighted) [3]: ≦1.02 μm
particle size, 90% of the particles (volume weighted) [3]: ≦2.43 μm
SMILES: CCCCCCCCCCC[C@@H](C[C@@H]1OC(=O)[C@H]1CCCCCC)OC(=O)[C@H](CC(C)C)NC=O [Orlistat]

solubility (CH3—O—CH3) ([1]; 25° C./100×10^5 Pa): >10 % (g/V)
solubility (CO2) ([2]; 45° C./200×10^5 Pa): <0.1 % (g/V)
particle size, 10% of the particles (volume weighted) [3]: ≦0.4 μm
particle size, 50% of the particles (volume weighted) [3]: ≦0.9 μm
particle size, 90% of the particles (volume weighted) [3]: ≦1.8 μm
SMILES: CC(C)(C)NC(=O)[C@@H]1C[C@@H]2CCCC[C@@H]2CN1C[C@@H](O)[C@H](Cc1ccccc1)NC(=O)[C@H](CC(N)=O)NC(=O)c1ccc2ccccc2n1 [Saquinavir]

solubility (CH3—O—CH3) ([1]; 45° C./200×10^5 Pa): 6.0 % (g/V)
solubility (CO2) ([2]; 45° C./200×10^5 Pa): 0.3 % (g/V)
SMILES: CC1=C(/C=C/C(C)=C/C=C/C(C)=C\C(=O)O)C(C)(C)CCC1 [Isotretionin]

solubility (CH3—O—CH3) ([1]; 45° C./200×10^5 Pa): 3.7 % (g/V)
solubility (CO2) ([2]; 45° C./200×10^5 Pa): 0.35 % (g/V)
SMILES: O=C(NCCN1CCOCC1)c1ccc(Cl)cc1 [Moclobemide]

solubility (CH3—O—CH3) ([1]; 45° C./200×10^5 Pa): 9.0 % (g/V)
solubility (CO2) ([2]; 45° C./200×10^5 Pa): <0.1 % (g/V)
SMILES: COc1ccccc1Oc1c(NS(=O)(=O)c2ccc(C(C)(C)C)cc2)nc(-c2ncccn2)nc1OCCO [Bosentan]

content of the apoester in the sprayed dimethyl ether solution (gravimetric) ([4]; 67° C., 150×10^5 Pa, equilibrated 30 minutes): 10 wt %
particle size ([4]; Example 6, sprayed from dimethyl ether, 67° C., 150×10^5 Pa, nozzle 0.2 mm): 9 μm
mean particle size ([4]; Example 10, powder with gelatin/sucrose matrix, starch catch process): 0.23 μm
SMILES: CCOC(=O)/C(C)=C/C=C/C(C)=C/C=C/C=C(C)/C=C/C=C(C)/C=C/C1=C(C)CCCC1(C)C [apoester, Ethyl-8′-apo-β-carotene-8′oate]

solubility in liquid dimethyl ether ([5]; 25° C., vapour pressure 4 bar): About 1.1 wt. %
solubility in liquid dimethyl ether ([5]; 60° C., vapour pressure 15 bar): 2.7 wt. %
carotene content of the homogeneous dimethyl ether phase (gravimetric) ([5]; 105° C., 175×10^5 Pa, Example 1): 33 wt. %
miscibility with dimethyl ether ([5]; 105° C., pressures above 140 bar): miscible without limitation in any ratio
SMILES: CC1=C(/C=C/C(C)=C/C=C/C(C)=C/C=C/C=C(C)/C=C/C=C(C)/C=C/C2=C(C)CCCC2(C)C)C(C)(C)CCC1 [β-carotene]
solubility in carbon dioxide ([6]; 35° C.): 0.00049 wt. %
solubility in carbon dioxide ([6]; 55° C.): 0.0016 wt. %
stability in liquid solution with the gases [7]: isomerizes or decomposes after a very short time
β-carotene concentration in supercritical gases [8]: 0.01 wt. %
dissolution in liquid sulphur dioxide ([9]; 15° C.): 0.59 wt. %
highest concentration in supercritical fluids (ethylene) ([9]; ethylene, 55° C., 500 bar): 0.035 wt. %
concentration in the solvents which are liquid at room temperature ([9]; liquid solvents except CS2): below 1 wt. %
solubility in CS2 ([9]; room temperature): 3.5 wt. %

Source: US20010031282A1, “Process for the manufacture of a pulverous preparation” (ROCHE VITAMINS INC., priority 1996, published 2001)
